Measurements published in patent publication US20240368104A1, “Novel Dialkoxynaphtho[2,3-C]Furan-1(3H)-One Derivatives and Pharmaceutical Composition For Preventing or Treating Respiratory Disease or SARS-COV-2 Infection Disease, Comprising Same” (priority 2021, published 2024).
Read-outs that look alike come from different tables or passages of the source.

Tests used:
[1] = in vitro; details: African green monkey
[2] = system: SARS-COV-2; test: microbe, parasite or virus in culture; type: cell-based; design: SI (Selectivity Index, CC50/IC50): unit not given here; details: for SI (Selectivity Index, CC50/IC50): SARS-COV-2, values >50 assumed to be 50; for IC50: read-out: SARS-COV-2 inhibition (IC50)
[3] = Severe acute respiratory syndrome coronavirus 2, Vero cells, 24 hours infection
[4] = Severe acute respiratory syndrome coronavirus 2, Vero, 24 h

Row | SMILES | CC50 [1] [µM] | SI (Selectivity Index, CC50/IC50) [2] | IC50 [2, 3] [µM] | IC50 [2, 4] [µM]
1 | COc1cc2cc3c(c(-c4ccc(N(C)Cc5ccc(C)o5)nc4)c2cc1OC)C(=O)OC3 [Example 179, 6,7-dimethoxy-9-(6-(methyl((5-methylfuran-2-yl)methyl)amino)pyridin-3-yl)naphtho[2,3-c]furan-1(3H)-one] | > 50 | 49.02 | 1.02 | 
2 | COc1cc2cc3c(c(-c4ccc(Cl)nc4)c2cc1OC)C(=O)OC3 [Example 185, 9-(6-chloropyridin-3-yl)-6,7-dimethoxynaphtho[2,3-c]furan-1(3H)-one] | > 50 | 149.26 | 0.33 | 
3 | COc1ccc2c(-c3c4c(cc5cc(OC)c(OC)cc35)COC4=O)ccnc2c1 [Example 150, 6,7-dimethoxy-9-(7-methoxyquinolin-4-yl)naphtho[2,3-c]furan-1(3H)-one] | > 50 | 1.0 | > 50 | 
4 | CCN(c1ncc(-c2c3c(cc4cc(OC)c(OC)cc24)COC3=O)cn1)C1CCCC1.Cl [Example 92, 9-(2-(cyclopentyl(ethyl)amino)pyrimidin-5-yl)-6,7-dimethoxynaphtho[2,3-c]furan-1(3H)-one hydrochloride] | > 50 | 42.34 |  | 1.18
5 | COc1cc2cc3c(c(-c4cnc(N5CCC6(CC5)OCCO6)nc4)c2cc1OC)C(=O)OC3 [Example 89, 9-(2-(1,4-dioxa-8-azaspiro[4.5]decan-8-yl)pyrimidin-5-yl)-6,7-dimethoxynaphtho[2,3-c]furan-1(3H)-one] | > 50 | 1.00 | > 50 | 
6 | COc1cc2cc3c(c(-c4ccc(N(C)CC(OC)OC)nc4)c2cc1OC)C(=O)OC3 [Example 162, 9-(6-((2,2-dimethoxyethyl)(methyl)amino)pyridin-3-yl)-6,7-dimethoxynaphtho[2,3-c]furan-1(3H)-one] | > 50 | 11.63 | 4.3 | 
7 | COc1cc2cc3c(c(-c4ccc(N5CCC(Cl)CC5)nc4)c2cc1OC)C(=O)OC3 [Example 142, 9-(6-(4-chloropiperidin-1-yl)pyridin-3-yl)-6,7-dimethoxynaphtho[2,3-c]furan-1(3H)-one] | > 50 | 25.00 | 2 | 
8 | COc1cc2cc3c(c(-c4cc(C)nc5c(OC)cccc45)c2cc1OC)C(=O)OC3 [Example 149, 6,7-dimethoxy-9-(8-methoxy-2-methylquinolin-4-yl)naphtho[2,3-c]furan-1(3H)-one] | > 50 | 1.0 | > 50 | 
9 | COc1cc2cc3c(c(N4CCN(CCN5CCOCC5)CC4)c2cc1OC)C(=O)OC3 [Example 143, 6,7-dimethoxy-9-(4-(2-morpholinoethyl)piperazin-1-yl)naphtho[2,3-c]furan-1(3H)-one] | > 50 | 1.0 | > 50 | 
10 | CCN(c1ncc(-c2c3c(cc4cc(OC)c(OC)cc24)COC3=O)cn1)C(C)C.Cl [Example 75, 9-(2-(ethyl(isopropyl)amino)pyrimidin-5-yl)-6,7-dimethoxynaphtho[2,3-c]furan-1(3H)-one hydrochloride] | > 50 | 60.56 |  | 0.83
11 | COc1cc2cc3c(c(-c4cc(C)nc5c(C(F)(F)F)cccc45)c2cc1OC)C(=O)OC3 [Example 136, 6,7-dimethoxy-9-(2-methyl-8-(trifluoromethyl)quinolin-4-yl)naphtho[2,3-c]furan-1(3H)-one] | > 50 | 1.0 | > 50 | 
12 | COc1cc2cccc(-c3c4c(cc5cc(OC)c(OC)cc35)COC4=O)c2cn1 [Example 133, 6,7-dimethoxy-9-(3-methoxyisoquinolin-8-yl)naphtho[2,3-c]furan-1(3H)-one] | > 50 | 1.0 | > 50 | 
13 | COc1cc2cc(CO)c(C(=O)NC(C)C)c(-c3cc4c(cc3O)OCO4)c2cc1OC [Example 228, 1-(6-hydroxybenzo[d][1,3]dioxol-5-yl)-3-(hydroxymethyl)-N-isopropyl-6,7-dimethoxy-2-naphthamide] | > 50 | 1.50 | 33.4 | 
14 | COc1cc2cc3c(c(-c4ccc5nc(C)ccc5c4)c2cc1OC)C(=O)OC3 [Example 116, 6,7-dimethoxy-9-(2-methylquinolin-6-yl)naphtho[2,3-c]furan-1(3H)-one] | > 50 | 43.72 | 1.14 | 
15 | COc1cc2cc3c(c(-c4ccc(N(C)c5ccc(N(C)C(C)=O)cc5)nc4)c2cc1OC)C(=O)OC3.Cl [Example 236, N-(4-((5-(6,7-dimethoxy-3-oxo-1,3-dihydronaphtho[2,3-c]furan-4-yl)pyridin-2-yl)(methyl)amino)phenyl)-N-methylacetamide] | > 50 | 30.25 |  | 1.65
16 | COc1cc2cc3c(c(-c4ccc(N(C)CCc5cn(C)c6ccccc56)nc4)c2cc1OC)C(=O)OC3 [Example 196, 6,7-dimethoxy-9-(6-(methyl(2-(1-methyl-1H-indol-3-yl)ethyl)amino)pyridin-3-yl)naphtho[2,3-c]furan-1(3H)-one] | > 50 | 20.54 | 2.43 | 
17 | COCCN(C)c1ccc(-c2c3c(cc4cc(OC)c(OC)cc24)COC3=O)cc1 [Example 256, 6,7-dimethoxy-9-(4-((2-methoxyethyl)(methyl)amino)phenyl)naphtho[2,3-c]furan-1(3H)-one] | > 50 | 82.38 | 0.61 | 
18 | CNc1ccc(-c2c3c(cc4cc(OC)c(OC)cc24)COC3=O)cn1 [Example 229, 6,7-dimethoxy-9-(6-(methylamino)pyridin-3-yl)naphtho[2,3-c]furan-1(3H)-one] | > 50 | 17.63 | 2.84 | 
19 | COc1cc2cc3c(c(-c4cnc(N(C)[C@H]5CCc6c(cccc6OC)C5)nc4)c2cc1OC)C(=O)OC3.Cl [Example 96, (S)-6,7-dimethoxy-9-(2-((5-methoxy-1,2,3,4-tetrahydronaphthalen-2-yl)(methyl)amino)pyrimidin-5-yl)naphtho[2,3-c]furan-1(3H)-one hydrochloride] | > 50 | 27.11 |  | 1.84
20 | COc1cc2cc3c(c(-c4cc5c(cc4OP(=O)(NC(C)C)c4ccccc4)OCO5)c2cc1OC)C(=O)OC3 (stereo not drawn) [Example 281, 6-(6,7-dimethoxy-3-oxo-1,3-dihydronaphtho[2,3-c]furan-4-yl)benzo[d][1,3]dioxol-5-yl N-isopropyl-P-phenylphosphoramidate] | > 50 | 3.45 |  | 14.5
21 | COc1cc2cc3c(c(-c4ccc5c(CN6CCOCC6)c[nH]c5c4)c2cc1OC)C(=O)OC3.Cl [Example 203, 6,7-dimethoxy-9-(3-(morpholinomethyl)-1H-indol-6-yl)naphtho[2,3-c]furan-1(3H)-one] | 29.7 | 8.39 |  | 3.54
22 | COCCN(CCOC)c1ccc(-c2c3c(cc4cc(OC)c(OC)cc24)COC3=O)cn1 [Example 174, 9-(6-(bis(2-methoxyethyl)amino)pyridin-3-yl)-6,7-dimethoxynaphtho[2,3-c]furan-1(3H)-one] | > 50 | 2.62 | 19.1 | 
23 | COc1cc2cc3c(c(N4CCN(CCO)CC4)c2cc1OC)C(=O)OC3 [Example 144, 9-(4-(2-hydroxyethyl)piperazin-1-yl)-6,7-dimethoxynaphtho[2,3-c]furan-1(3H)-one] | > 50 | 1.0 | > 50 | 
24 | COc1cc2cc3c(c(N4CCN(c5cc(Cl)nc(SC)n5)CC4)c2cc1OC)C(=O)OC3 [Example 130, 9-(4-(6-chloro-2-(methylthio)pyrimidin-4-yl)pilerazin-1-yl)-6,7-dimethoxynaphtho[2,3-c]furan-1(3H)-one] | > 50 | 1.0 | > 50 | 
25 | CCCCN(C)c1ncc(-c2c3c(cc4cc(OC)c(OC)cc24)COC3=O)cn1 [Example 71, 9-(2-(butyl(methyl)amino)pyrimidin-5-yl)-6,7-dimethoxynaphtho[2,3-c]furan-1(3H)-one] | > 50 | 234.36 |  | 0.21
26 | COc1cc2c(OC)c3c(c(-c4ccc5c(c4)OC(F)(F)O5)c2cc1OC)COC3=O [Example 259, 4-(2,2-difluorobenzo[d][1,3]dioxol-5-yl)-6,7,9-trimethoxynaphtho[2,3-c]furan-1(3H)-one] | > 50 | 1.00 | > 50 | 
27 | COc1cc2cc3c(c(-c4ccc(N5CCN(C)CC5)nc4)c2cc1OC)C(=O)OC3 [Example 167, 6,7-dimethoxy-9-(6-(4-methylpiperazin-1-yl)pyridin-3-yl)naphtho[2,3-c]furan-1(3H)-one] | > 50 | 3.73 | 14.8 | 
28 | CCN(C)c1ccc(-c2c3c(cc4cc(OC)c(OC)cc24)COC3=O)cc1 [Example 248, 9-(4-(ethyl(methyl)amino)phenyl)-6,7-dimethoxynaphtho[2,3-c]furan-1(3H)-one] | > 50 | 344.5 | < 0.098 | 
29 | COc1cc2cc3c(c(-c4ccc(N(C)C(C)C)nc4)c2cc1OC)C(=O)OC3 [Example 188, 9-(6-(isopropyl(methyl)amino)pyridin-3-yl)-6,7-dimethoxynaphtho[2,3-c]furan-1(3H)-one] | > 50 | 1418.97 | 0.04 | 
30 | COc1cc2cc3c(c(-c4ccc(N(C)C(C)=O)nc4)c2cc1OC)C(=O)OC3 [Example 230, N-(5-(6,7-dimethoxy-3-oxo-1,3-dihydronaphtho[2,3-c]furan-4-yl)pyridin-2-yl)-N-methylacetamide] | > 50 | 2.45 | 20.4 | 
